# Data taken from PMC5733122, “Purification, Characterization, and Mode of Action of Pentocin JL-1, a Novel Bacteriocin Isolated from Lactobacillus pentosus, against Drug-Resistant Staphylococcus aureus” (BioMed Research International, 2017).
# Assay: pH stability, residual antibacterial activity
# Assay type: physicochemical
# Details: 1 h; for Residual inhibitory activity (inhibition zone diameter, mm): 15 μg/mL in 0.05% acetic acid, agar-well diffusion vs MRSA GIM 1.771, mean ± SD, triplicate; for Residual inhibitory activity (inhibition zone diameter, mm) / Residual inhibitory activity (%): readjusted to pH 5.5; for Residual inhibitory activity (%): 15 μg/mL, vs MRSA GIM 1.771, relative to control pH 5.5
# Description: To determine pH stability, lyophilized purified pentocin JL-1 was dissolved in 0.05% (w/v) acetic acid at 15 μg/mL and was adjusted with 1.0 M HCl or 1.0 M NaOH to different pH values of 2.0, 3.0, 4.0, 5.0, 6.0, 7.0, 8.0, 9.0, and 10.0. Then the above samples were incubated at 37°C for 1 h and were adjusted to pH 5.5 with 1.0 M HCl or 1.0 M NaOH.
# The residual antibacterial activities of the above samples were calculated using the agar-well diffusion test with MRSA GIM 1.771 as the indicator strain. […] Lyophilized pentocin JL-1 dissolved in 0.05% (w/v) acetic acid at 15 μg/mL with pH 5.5 was used as a control in all assays.
substance,measurement,setting,value
"VAKVAR [pentocin JL-1, novel bacteriocin produced by Lactobacillus pentosus JL-1, purified by four-step chromatography, molecular mass 2987.23 Da, cationic and hydrophobic peptide]",pH range tolerated / stable,"37°C, no significant differences in antimicrobial activity (p > 0.05)",5–7
same,"Residual inhibitory activity (inhibition zone diameter, mm)","pH 2.0, 37°C",15.7 ± 1.4 mm
same,Residual inhibitory activity (%),"pH 2.0, 37°C",65.69^∗ %
same,"Residual inhibitory activity (inhibition zone diameter, mm)","pH 3.0, 37°C",16.2 ± 1.8 mm
same,Residual inhibitory activity (%),"pH 3.0, 37°C",67.78^∗ %
same,"Residual inhibitory activity (inhibition zone diameter, mm)","pH 4.0, 37°C",16.8 ± 1.2 mm
same,Residual inhibitory activity (%),"pH 4.0, 37°C",70.29^∗ %
same,"Residual inhibitory activity (inhibition zone diameter, mm)","pH 5.0, 37°C",23.9 ± 0.4 mm
same,Residual inhibitory activity (%),"pH 5.0, 37°C",100.00%
same,"Residual inhibitory activity (inhibition zone diameter, mm)","pH 6.0, 37°C",23.9 ± 0.8 mm
same,Residual inhibitory activity (%),"pH 6.0, 37°C",100.00%
same,"Residual inhibitory activity (inhibition zone diameter, mm)","pH 7.0, 37°C",23.6 ± 0.6 mm
same,Residual inhibitory activity (%),"pH 7.0, 37°C",98.74%
same,"Residual inhibitory activity (inhibition zone diameter, mm)","pH 8.0, 37°C",14.6 ± 0.3 mm
same,Residual inhibitory activity (%),"pH 8.0, 37°C",61.09^∗ %
same,"Residual inhibitory activity (inhibition zone diameter, mm)","pH 9.0, 37°C",12.9 ± 0.9 mm
same,Residual inhibitory activity (%),"pH 9.0, 37°C",53.97^∗ %
same,"Residual inhibitory activity (inhibition zone diameter, mm)","pH 10.0, 37°C",12.5 ± 1.6 mm
same,Residual inhibitory activity (%),"pH 10.0, 37°C",52.30^∗ %
